Data: patent publication US20140005271A1, “PHARMACEUTICAL COMPOSITION FOR PREVENTING OR TREATING INFLAMMATORY DISEASES OR INFECTIOUS DISEASES, CONTAINING m-3M3FBS, WHICH IS ACTIVATOR OF PHOSPHOLIPASE C, AS ACTIVE INGREDIENT” (priority 2011, published 2014)

Assays:
[1] = test system: mouse neutrophils; test: Production of H2O2 in neutrophils; type: cell-based
Experimental: Neutrophils of mice were isolated from peripheral blood using Histopaque-1077 solvent (Sigma), and neutrophils isolated from a normal mouse were stimulated by treating various concentrations of m-3M3FBS for 10 minutes in the presence of cytochalasin B (5 μm). […] H2O2 obtained from a supernatant was analyzed using H2O2 Molecular Probes.

[2] = test system: mouse neutrophils with opsonized E. coli; test: Microbicidal action of neutrophils on ingested opsonized E. coli; type: cell-based
Experimental: Neutrophils were incubated for 1 hour at a 13-mm plastic cover slip on a 60-mm plastic petri dish (1×10^6 neutrophils/cover slip) at 37° C. Unattached neutrophils were removed by PBS washing, and the attached neutrophils were incubated with 10^6 of opsonized E. coli for 20 minutes. Microbes ingested by neutrophils were incubated for 30 minutes at various concentrations of m-3M3FBS or vehicles, and changes of the microbes before and after incubation were examined. A percentage of dead microbes was calculated by 100×(1−the number of CFU after m-3M3FBS stimulation/the number of CFU before m-3M3FBS stimulation).

[3] = test system: CLP mouse models; test: Survival/mortality of CLP (cecal ligation and puncture) sepsis mice; type: in vivo; settings: for effect on the m-3M3FBS-induced survival rate: treated within the period of injecting m-3M3FBS, 1.5 mg/kg, FIG. 1C
Experimental: (§1) Male WT ICR mice were used as test models. All tests involving animals were performed according to the guidelines, and received the approval of Institutional Review Committee for Animal Care and Use from Dong-a University. For cecal ligation and puncture (CLP), the mice were anesthetized by intraperitoneal injection of pentothal sodium (50 mg/kg), and the cecum was exposed through midline incision of the abdomen. The cecum was ligated at a terminal end of the ileocecal valve, and the surface was perforated twice, or once to measure cytokine production using a 22-gauge needle, and the abdomen was closed. The control (sham) CLP mice underwent the same process as described above, but the cecum was not ligated or punctured.

[4] = test system: caspase-3; test: Immunostaining of fragmented caspase-3 in splenocytes of CLP mice; parameters: species or system mouse; settings: 1.5 mg/kg in vivo; FIG. 4D
Experimental: Immunostaining was performed on the paraffin-embedded tissue fragments. The fragments were incubated with primary antibodies (Cell Signal transduction) in response to fragmented capase-3, and stained with fluorescent pigment-fused secondary antibodies.

[5] = test system: bacteria in the peritoneal fluid; test: In vivo microbicidal action: bacterial colonies (CFU) in peritoneal lavage fluid after CLP; parameters: species or system mouse; settings: 1.5 mg/kg; 24 hours after CLP; FIG. 3A
Experimental: 24 hours after the CLP, peritoneal lavage fluid was harvested, and was incubated overnight in a blood-agar base plate (Trypticase Soy Agar Deeps, Becton Dickinson) at 37° C. CFUs were estimated by counting bacteria colonies formed in the blood-agar base plate (Trypticase Soy Agar Deeps, Becton Dickinson).

[6] = test system: lung of the CLP mouse; test: Inflammation of the lung in CLP mice (hematoxylin and eosin staining, W/D weight ratio); type: in vivo; settings: 1.5 mg/kg
Experimental: The degree of pulmonary edema was identified by measuring a wet-to-dry (W/D) ratio of the lung. The wet weight of the harvested cells was measured, and the cells were placed in an oven at 60° C. for 48 hours, and the dry weight of the cells was measured, thereby obtaining the W/D ratio.
2 hours after the mice underwent CLP, PBS or m-3M3FBS was administered at a concentration of 1.5 mg/kg. 24 hours after the surgery, the mice were euthanized, and the lung was fixed, cut, and stained with hematoxylin and eosin to perform morphological analysis.

[7] = test system: mouse neutrophils; test: LPS-induced proinflammatory cytokine secretion in neutrophils by ELISA; type: cell-based; settings: LPS 100 ng/ml, m-3M3FBS 10 μM, versus LPS alone
Experimental: Mouse neutrophils (3×10^6 cells/0.3 ml) were incubated in a 24-well plate containing 10% FBS-contained RPMI 1640 medium, and placed in 5% CO2 incubator at 37° C. Then, the neutrophils were incubated with LPS (100 ng/ml) for 6 hours in the presence or absence of m-3M3FBS (10 μM). The LPS (100 ng/ml) was treated to the cells after 30 minutes, the cell-free supernatant was harvested by centrifugation, and the production of IL-1 or TNF-α was detected by ELISA (BD Biosciences Pharmingen) according to the manufacturer's instructions.

[8] = test system: splenocytes; test: TUNEL assay of CLP-induced apoptosis; type: in vivo, mouse; settings: 1.5 mg/kg; FIG. 4C
Experimental: The TUNEL assay was performed on tissue fragments embedded in paraffin, and the fragments were subjected to permeation of Triton X-100 at 4° C. for 2 minutes, and immersed in a TdT enzyme and a digoxigenin-dUTP reaction buffer (TUNEL) reagent for 60 minutes at 37° C. A percentage of apoptotic cells (TUNEL-positive cells) was determined by counting 500 splenocytes, which were observed using an optical microscope.

[9] = test system: cytokines in the peritoneal fluid; test: CLP-induced cytokines in peritoneal fluid by ELISA; type: in vivo, mouse; settings: 1.5 mg/kg, 4 to 72 hours after CLP
Experimental: To detect production of CLP-inducing cytokines in peritoneal lavage fluid, m-3M3FBS was treated 2, 14, 26, or 38 hours after CLP. The peritoneal lavage fluid was harvested at various points of time from 4 to 72 hours after the CLP, and expression of cytokines in the peritoneal fluid was detected by ELISA (BD Biosciences Pharmingen).

[10] = test system: thymocytes and splenocytes; test: CLP-induced apoptosis of thymocytes and splenocytes (H&E staining, counting of living cells); type: in vivo, mouse; settings: 1.5 mg/kg; 24 hours; FIGS. 4A and B
Experimental: as §1

[11] = test system: splenocytes of mice; test: Direct in vitro production of IFN-γ and IL-12 by ELISA; type: cell-based, mouse; settings: various concentrations, 3 hours

COc1ccc2c(c1)CC[C@@H]1[C@@H]2CC[C@]2(C)[C@@H](NCCCCCCN3C(=O)C=CC3=O)CC[C@@H]12 [U-73122, reference compound]
effect on m-3M3FBS-induced production of H2O2 ([1]; neutrophils preincubated with the inhibitor (10 μm), FIG. 3E): significantly decreased
effect on m-3M3FBS-induced microbicidal action ([2]; neutrophils preincubated with the inhibitor (10 μM), then m-3M3FBS added, FIG. 3C): completely prevented
effect on the m-3M3FBS-induced survival rate [3]: completely prevented the increase in the m-3M3FBS-induced survival rate

COc1ccc2c(c1)CC[C@@H]1[C@@H]2CC[C@]2(C)[C@@H](NCCCCCCN3C(=O)CCC3=O)CC[C@@H]12 [U-73343, reference compound]
effect on the m-3M3FBS-induced survival rate [3]: did not

Cc1cc(C)c(S(=O)(=O)Nc2cccc(C(F)(F)F)c2)c(C)c1 [m-3M3FBS]
activation of CLP-induced caspase-3 [4]: significantly inhibited
decrease in number of colonies of bacteria in the abdominal cavity [5]: 55%
W/D weight ratio of the lung ([6]; 24 hours after CLP, FIG. 2B): significantly decreased
lung inflammation symptoms (congestion, extensive thrombotic lesions) ([6]; hematoxylin and eosin staining 24 hours after surgery, FIG. 2A): significantly decreased
level of IL-1β after LPS treatment ([7]; FIG. 6A): decreased
level of TNF-α after LPS treatment ([7]; FIG. 6B): decreased
level of IL-6 after LPS treatment ([7]; FIG. 6C): decreased
production of H2O2 in the neutrophils ([1]; 1 to 50 μm m-3M3FBS, FIG. 3D): increased the production of H2O2 in the neutrophils in a direction proportional to the concentration
microbicidal action of the neutrophils ([2]; 1 to 50 μm m-3M3FBS, FIG. 3B): significantly increased in a direction proportional to the concentration
CLP-induced apoptosis by DNA fragmentation assay (TUNEL) [8]: significantly inhibited
level of IL-1β in peritoneal fluid ([9]; FIG. 5A): significantly decreased
level of TNF-α in peritoneal fluid ([9]; FIG. 5B): significantly decreased
level of IL-12p70 in peritoneal fluid ([9]; FIG. 5C): significantly increased
level of IFN-γ in peritoneal fluid ([9]; FIG. 5D): significantly increased
CLP-induced apoptosis of the thymocytes and splenocytes [10]: significantly inhibited
survival rate by injection frequency ([3]; 1.5 mg/kg 2 hours after CLP, further three or four times at 12 hour intervals, FIG. 1B): significantly improved
survival rate of the mice compared to vehicle-injected control ([3]; 0.9 or 1.5 mg/kg injected, FIG. 1A): significantly increased
mortality of the mice after CLP ([3]; various concentrations injected after CLP, FIG. 1A): significant decrease in the mortality
production of IFN-γ ([11]; FIG. 6D): increased
production of IL-12 ([11]; FIG. 6E): increased
